Experimental data taken from US4749694A, “Novel lysine esters used as absorption” (Merck & Co., Inc., priority 1984, dated 1988).
Blank lines part the entries; values can stand above or below the compound they belong to.

What was measured:
[1] = Absorption of cytarabine with or without hexadecyl lysinate in rats, percent bioavailability versus intravenous (Example 8); conditions: rat, in vivo, 2.5 mg, pH 6, rats, 2.5 mg cytarabine ± 5.0 mg hexadecyl lysinate, 250 μl, pH 6, versus intravenous
Method: The absorption of cytarabine, an antineoplastic and antiviral agent, was tested in rats employing aqueous formulations of cytarabine and hexadecyl lysinate. The compounds were administered in a total volume of 250 μl at pH 6. Both rectal and duodenal sites in the intestine were tested. Blood samples were collected, cytarabine assayed, and "area-under-the-curve"* calculated. Percent bioavailability was determined versus intravenous administration. Each animal received 2.5 mg cytarabine ±5.0 mg hexadecyl lysinate. Three animals were used for each experiment.

[2] = Absorption of sodium cefoxitin with or without alcohol-lysine esters in rats, percent bioavailability versus intravenous (Example 6); conditions: for effect as absorption promoter at 5 mg/dose (in words): 5 mg/dose level, comparison with hexadecyl lysinate; for bioavailability: rat, serum, 2.5 mg
Method: Blood samples were collected, sodium cefoxitin assayed, and "area-under-the-curve"* calculated. Percent bioavailability was determined versus intravenous administration. Each animal received 2.5 mg sodium cefoxitin ±5.0 mg alcohol-lysine ester. From 3 to 12 animals were used for each compound.

[3] = Absorption of sodium cefoxitin with varying concentrations of hexadecyl lysinate in rats, percent bioavailability (Example 9); format: in vivo, rat; conditions: for bioavailability: rat, serum, 2.5 mg, pH 6, rats, hexadecyl lysinate 0 mg/body, 2.5 mg sodium cefoxitin, pH 6
Method: Percent bioavailability was determined versus intravenous administration. Each animal received 2.5 mg sodium cefoxitin with varying amounts of hexadecyl lysinate.

SMILES: Nc1ccn([C@@H]2O[C@H](CO)[C@@H](O)[C@@H]2O)c(=O)n1 [Cytarabine]
- bioavailability ([1]; duodenal, read-out: Percent Cytarabine Bioavailability (mean ± SE), Duodenal): 5%
- bioavailability ([1]; rectal, read-out: Percent Cytarabine Bioavailability (mean ± SE), Rectal): 6 ± 1.7%

SMILES: O=C(O)c1ccccc1O [salicylate]
- effect as absorption promoter at 5 mg/dose (in words) [2]: ineffective

- concentration dependence of absorption promoting effect (in words) ([3]; Example 9): act in a concentration dependent manner
SMILES: CCCCCCCCCCCCCCCCOC(=O)[C@@H](N)CCCCN [Hexadecyl lysinate]

- bioavailability ([2]; intestinal absorption of sodium cefoxitin, with 5 mg/dose promoter (hexadecyl lysinate) or without): 1%
- bioavailability ([2]; pH 7, Percent Cefoxitin Bioavailability (mean ± SE), Duodenal, rats, 2.5 mg sodium cefoxitin ± 5.0 mg alcohol-lysine ester, 250 μl, pH 7, versus intravenous): 1%
- bioavailability ([2]; pH 7, Percent Cefoxitin Bioavailability (mean ± SE), Rectal, rats, 2.5 mg sodium cefoxitin ± 5.0 mg alcohol-lysine ester, 250 μl, pH 7, versus intravenous): 2 ± 1.1%
- bioavailability ([3]; duodenal, read-out: Percent Cefoxitin Bioavailability (mean ± SE), Duodenal): 1%
- bioavailability ([3]; rectal, read-out: Percent Cefoxitin Bioavailability (mean ± SE), Rectal): 2 ± 1.1%
SMILES: CO[C@@]1(NC(=O)Cc2cccs2)C(=O)N2C(C(=O)O)=C(COC(N)=O)CS[C@@H]21 [Cefoxitin]

SMILES: O=C(O)CN(CCN(CC(=O)O)CC(=O)O)CC(=O)O [EDTA]
- effect as absorption promoter at 5 mg/dose (in words) [2]: ineffective
